Data taken from patent US6825348B2, “Antiviral compounds” (Academia Sinica, priority 2002, dated 2004).
In brackets after ≈: the same amount, converted by molar mass. Read-outs that look alike come from different tables or passages of the source.

Columns and labels:
[1] = tested on: human cytomegalovirus (AD-169); assay: Inhibition of HCMV cytopathogenicity in Vero cell culture; assay type: cell-based; details: for IC50: read-out: IC50 HCMV (AD-169)
[2] = Solubility in water (phosphate buffer, UV absorbance); details: for solubility at 20 h: pH 6.8, aqueous buffer, thermodynamic from solid
[3] = target: T1, calf mucosal adenosine deaminase (ADA, EC 3.5.4.4) (Bos taurus, UniProt P56658); assay: Substrate activity and competitive inhibition of adenosine deaminase; assay type: biochemical; details: for rel. Vmax: compound as ADA substrate, relative to ara A 3 = 1.0
T1 sequence (P56658 1-363): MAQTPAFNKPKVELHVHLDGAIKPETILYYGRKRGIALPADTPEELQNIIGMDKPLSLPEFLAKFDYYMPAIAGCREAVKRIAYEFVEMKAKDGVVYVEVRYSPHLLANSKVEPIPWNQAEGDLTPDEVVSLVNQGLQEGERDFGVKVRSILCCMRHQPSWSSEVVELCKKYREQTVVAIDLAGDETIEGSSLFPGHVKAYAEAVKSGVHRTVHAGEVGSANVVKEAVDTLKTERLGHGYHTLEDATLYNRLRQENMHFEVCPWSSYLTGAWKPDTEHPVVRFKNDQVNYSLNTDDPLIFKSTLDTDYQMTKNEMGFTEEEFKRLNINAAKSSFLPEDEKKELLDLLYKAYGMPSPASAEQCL

[4] = tested on: thymidine kinase-deficient (TK−) varicella-zoster virus (YS/R); assay: microbe, parasite or virus in culture; assay type: cell-based; details: for IC50: Human alphaherpesvirus 3, Vero, read-out: IC50 TK−VZV (YS/R)
[5] = tested on: moloney murine sarcoma virus (MSV); assay: Inhibition of MSV cytopathogenicity in CEM cells (cell-protection assay); assay type: cell-based; details: Moloney murine sarcoma virus, CCRF-CEM, read-out: IC50 MSV
[6] = tested on: herpes simplex type 1 virus (HSV-1) (KOS); assay: Inhibition of HSV-1 cytopathogenicity in Vero cell culture; assay type: cell-based; details: for IC50: Human alphaherpesvirus 1, Vero, read-out: IC50 HSV-1 (KOS)
HIV-1 (IIIB) = assay: microbe, parasite or virus in culture; assay type: cell-based; details: Human immunodeficiency virus 1, IIIB
HIV-2 (LAV-2) = assay: Inhibition of HIV-2 cytopathogenicity in MT4 cells; assay type: cell-based, human immunodeficiency virus
[7] = tested on: Snake venom phosphodiesterase; assay: Activity of snake venom phosphodiesterase against nucleotide analogs; details: pH 9.2, 37° C., 8 h
[8] = Lipophilicity, 1-octanol/water partition coefficient
HSV-1 (KOS) = assay: Anti-HSV-1 activity in vivo, HSV-1-induced mortality in NMRI mice; details: 6 days; for mean day of animal death / mean day of symptom initiation: terminated day 21; for responders at 100 mg/kg / responders at 150 mg/kg / responders at 250 mg/kg: Human alphaherpesvirus 1, ip, 504 h
MT4 cells = assay: Toxicity toward MT4 cells
CEM cells = assay: Toxicity toward CEM cells
MSV = details: for mean day of animal death / percentage of MSV-infected mice alive at day 21 postinfection / percentage of MSV-infected mice without tumors at day 21 postinfection: two injections; for mean day of tumor initiation: two injections within two days
[9] = tested on: thymidine kinase-positive (TK+) varicella-zoster virus (YS); assay: Inhibition of TK+ VZV cytopathogenicity in Vero cell culture; assay type: cell-based
[10] = LD50 and toxicity in mice, intraperitoneal
[11] = tested on: herpes simplex type 2 virus (HSV-2) (G); assay: Inhibition of HSV-2 cytopathogenicity in Vero cell culture; assay type: cell-based; details: 50% inhibition of cytopathogenicity, for 1:1 mixtures IC50 refers to known antiviral drugs
[12] = tested on: Vero cell thymidine kinase; assay: Phosphorylation of nucleosides by Vero cell thymidine kinase; assay type: biochemical
HSV thymidine kinase = HSV thymidine kinase (Human herpesvirus 1, UniProt P0DTH5); assay: Phosphorylation of nucleosides by HSV thymidine kinase; assay type: biochemical
[13] = 100 mg/kg/day i.p., read-out: percentage of HSV-1-infected mice alive at day 21 postinfection
[14] = 100 mg/kg/day i.p., read-out: percentage of HSV-1-infected mice without symptoms at day 21 postinfection
[15] = 150 mg/kg/day i.p., read-out: percentage of HSV-1-infected mice alive at day 21 postinfection
[16] = 150 mg/kg/day i.p., read-out: percentage of HSV-1-infected mice without symptoms at day 21 postinfection
[17] = 250 mg/kg/day i.p., read-out: percentage of HSV-1-infected mice alive at day 21 postinfection
[18] = 250 mg/kg/day i.p., read-out: percentage of HSV-1-infected mice without symptoms at day 21 postinfection
[19] = Vero cell culture, 50% inhibition of cytopathogenicity, for 1:1 mixtures IC50 refers to known antiviral drugs

HSV thymidine kinase, sequence (P0DTH5 whole entry, looked up): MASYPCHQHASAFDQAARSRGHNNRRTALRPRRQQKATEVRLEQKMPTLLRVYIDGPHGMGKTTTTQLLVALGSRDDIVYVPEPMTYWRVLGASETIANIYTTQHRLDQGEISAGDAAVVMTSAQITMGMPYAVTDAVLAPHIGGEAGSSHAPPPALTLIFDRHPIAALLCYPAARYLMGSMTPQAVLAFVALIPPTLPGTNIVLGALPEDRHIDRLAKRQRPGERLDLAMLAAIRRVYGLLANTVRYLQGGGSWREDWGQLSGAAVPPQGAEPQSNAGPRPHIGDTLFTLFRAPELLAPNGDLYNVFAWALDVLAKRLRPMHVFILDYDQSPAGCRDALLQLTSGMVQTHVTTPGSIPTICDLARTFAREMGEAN

## Nc1ncnc2c1ncn2[C@@H]1O[C@H](COP(=O)(O)O)[C@@H](OP(=O)(O)COCCn2cnc3ncnc(N)c32)[C@H]1O [Compound 24, 9-[5′-O-(phosphono)-β-D-furanosyl]adenine-3′-[[1-(adenin-7-yl-ethoxy)methyl]phosphonate]]
[1]; Human betaherpesvirus 5, AD169, Vero
  IC50: 11 µg/mL (≈ 18.3 µM)
[2]; 0.10 m phosphate buffer
  solubility at 20 h: 3080 µg/mL (≈ 5110 µM)
[3]; ADA substrate
  Vmax less than that of ara-A 3: about 95%
[3]; ara-A used as substrate
  type of ADA inhibition in words: competitive inhibition
[3]
  rel. Vmax: 9.78 × 10^−2
[3]; inhibition of ADA with ara-A 3 as substrate
  Ki: 99.7 µM
[4]
  IC50: 4.2 µg/mL (≈ 6.97 µM)
[5]
  IC50: 17 µg/mL (≈ 28.2 µM)
[6]
  IC50: 7 µg/mL (≈ 11.6 µM)
HIV-1 (IIIB); MT4, read-out: IC50 HIV-1 (IIIB)
  IC50: 5.9 µg/mL (≈ 9.79 µM)
HIV-2 (LAV-2); Human immunodeficiency virus 2, MT4, read-out: IC50 HIV-2 (LAV-2)
  IC50: 6.4 µg/mL (≈ 10.6 µM)
[7]
  yield of 5′-dephosphorylated product with snake venom phosphodiesterase: about 80%
[8]; 1-octanol/phosphate buffer
  logP at […]: 0.12
HSV-1 (KOS); 100 mg/kg/day i.p.
  mean day of animal death: 19.5 ± 1.2 days
  mean day of symptom initiation: 16.0 ± 1.7 days
HSV-1 (KOS); 150 mg/kg dose level i.p.
  protection against HSV-induced mortality: full protection
HSV-1 (KOS); 150 mg/kg/day i.p.
  mean day of animal death: >21 days
  mean day of symptom initiation: 19.3 ± 1.6 days
HSV-1 (KOS); 250 mg/kg/day i.p.
  mean day of animal death: >21 days
  mean day of symptom initiation: >21 days
HSV-1 (KOS); [13]
  responders at 100 mg/kg: 90%
HSV-1 (KOS); [14]
  responders at 100 mg/kg: 70%
HSV-1 (KOS); [15]
  responders at 150 mg/kg: 100%
HSV-1 (KOS); [16]
  responders at 150 mg/kg: 85%
HSV-1 (KOS); [17]
  responders at 250 mg/kg: 100%
HSV-1 (KOS); [18]
  responders at 250 mg/kg: 100%

## COC1=C(OC)/C(=C/COP(=O)(O)COCCn2cnc3c(N)ncnc32)OC1=O [Compound 28, [1-(Adenin-9-yl-ethoxy)methyl]phosphono-6-yl-(Z)-4-(ethylidene)-2,3-dimethoxy-Δ^a,b-butenolide]
[1]; Human betaherpesvirus 5, AD169, Vero cell culture, 50% inhibition of cytopathogenicity, for 1:1 mixtures IC50 refers to known antiviral drugs
  IC50: 5.4 µg/mL (≈ 12.2 µM)
[2]; phosphate buffer
  solubility at 20 h: 7420 µg/mL (≈ 16800 µM)
MT4 cells
  MT4 cell, concentration reducing the number of viable uninfected cells by 50%: 265 µg/mL
[3]
  ADA substrate / inhibitor property in words: neither a good substrate nor an inhibitor
[4]
  IC50: 2.4 µg/mL (≈ 5.44 µM)
[5]; CEM cells, average of duplicates
  IC50: 0.93 µg/mL (≈ 2.11 µM)
[6]
  IC50: 3.7 µg/mL (≈ 8.38 µM)
HIV-1 (IIIB); MT4 cells, average of duplicates, read-out: IC50 HIV-1 (IIIB)
  IC50: 1.4 µg/mL (≈ 3.17 µM)
HIV-2 (LAV-2); Human immunodeficiency virus 2, MT4 cells, average of duplicates, read-out: IC50 HIV-2 (LAV-2)
  IC50: 1 µg/mL (≈ 2.27 µM)
Vero cells; African green monkey
  Vero cell, concentration causing microscopically visible change or disruption in about 50% of the cell sheet: 170 µg/mL
CEM cells
  CEM cell, concentration reducing the number of viable uninfected cells by 50%: 280 µg/mL
MSV; 10 mg/kg/day i.p.
  mean day of animal death: 18.9 ± 1.8 days
  percentage of MSV-infected mice alive at day 21 postinfection: (97%)
  mean day of tumor initiation: 14.0 ± 2.1 days
MSV; 20 mg/kg/day i.p.
  mean day of animal death: >21 days
  percentage of MSV-infected mice alive at day 21 postinfection: (100%)
  percentage of MSV-infected mice without tumors at day 21 postinfection: (80%)
  mean day of tumor initiation: 17.9 ± 1.7 days
MSV; 50 mg/kg/day i.p.
  mean day of animal death: >21 days
  percentage of MSV-infected mice alive at day 21 postinfection: (100%)
  percentage of MSV-infected mice without tumors at day 21 postinfection: (95%)
  mean day of tumor initiation: 18.4 ± 1.4 days
MSV; MSV-infected NMRI mice, i.p.
  weight loss in surviving animals: about 2 g
[9]
  IC50 TK+VZV (YS): 2.0 µg/mL (≈ 4.53 µM)
HeLa cells; human
  HeLa cell, concentration causing microscopically visible change or disruption in about 50% of the cell sheet: 139 µg/mL
[10]; NMRI, mouse, in vivo, ip
  LD50: 710 mg/kg
[10]; mice, intraperitoneal
  level up to which no toxicity was shown: 400 mg/kg
[8]; 1-octanol/water (0.10 M phosphate buffer)
  logP at […]: 2.09
HSV-1 (KOS); 100 mg/kg i.p.
  protection against HSV-induced mortality: same level of protection
HSV-1 (KOS); 100 mg/kg/day i.p.
  mean day of animal death: >21 days
  mean day of symptom initiation: >21 days
HSV-1 (KOS); 150 mg/kg/day i.p.
  mean day of animal death: >21 days
  mean day of symptom initiation: >21 days
HSV-1 (KOS); 250 mg/kg/day i.p.
  mean day of animal death: >21 days
  mean day of symptom initiation: >21 days
HSV-1 (KOS); [13]
  responders at 100 mg/kg: 100%
HSV-1 (KOS); [14]
  responders at 100 mg/kg: 100%
HSV-1 (KOS); [15]
  responders at 150 mg/kg: 100%
HSV-1 (KOS); [16]
  responders at 150 mg/kg: 100%
HSV-1 (KOS); [17]
  responders at 250 mg/kg: 100%
HSV-1 (KOS); [18]
  responders at 250 mg/kg: 100%

## Nc1ncnc2c1ncn2[C@@H]1O[C@H](CO)[C@@H](O)[C@@H]1O [ara A 3, 9-(β-D-arabinofaranosyl)adenine, reference compound]
[1]; [19]
  IC50 HCMV (AD-169): 27 µg/mL (≈ 101 µM)
[2]; phosphate buffer 0.10 M, pH 6.8, agitated 20 h
  solubility in water: 480 µg/mL (≈ 1800 µM)
[11]
  IC50 HSV-2 (G): >128 µg/mL
[3]
  rel. Vmax: 1.0
[4]; [19]
  IC50 TK−VZV (YS/R): >128 µg/mL
[6]; Vero cell culture, 50% inhibition of virus-induced cytopathogenicity, mean of duplicates, for 1:1 (W/W) mixtures IC50 refers to known antiviral drugs
  IC50 HSV-1 (KOS): 8.8 µg/mL (≈ 32.9 µM)
Vero cells
  Vero cell, concentration causing microscopically visible change or disruption in about 50% of the cell sheet: 89 µg/mL
[9]; [19]
  IC50 TK+VZV (YS): >128 µg/mL
[12]; apparent Km, 37° C., pH 7.5
  Km: 13 mM
[12]; relative to thymidine = 1.0 × 10^2
  rel. Vmax, Vero cell thymidine kinase: <3.0
HeLa cells
  HeLa cell, concentration causing microscopically visible change or disruption in about 50% of the cell sheet: 73 µg/mL
HSV thymidine kinase
  rel. Vmax, HSV thymidine kinase: <3.0
HSV thymidine kinase; mixture with acyclovir 2 (w/w=1:1)
  effect on the rate of phosphorylation of acyclovir 2 in words: did not induce any increase
[8]; P = [substrate]1-octanol/[substrate]H2O, phosphate buffer 0.10 M
  log P (1-octanol/water): −0.50
